{
  "source": "patent US6335341B1",
  "about": "“Pyridyl-and pyrimidyl-heterocyclic compounds inhibiting oxido squalene-cyclase” (Zeneca Limited, priority 1997, dated 2002)",
  "data": [
    {"values": [
      {"compound": "Cc1cc(N2CCC(CN3CCN(S(=O)(=O)c4ccc(Cl)cc4)CC3)CC2)nc(C)n1", "note": "[Example 11, 1-(4-chlorophenylsulphonyl)-4-[1-(2,6-dimethylpyrimidin-4-yl)-4-piperidylmethyl]piperazine]", "melting point": "73 to 74 °C"},
      {"compound": "Cc1nccc(N2CCC(CN3CCN(C(=O)c4ccc(F)cc4)CC3)CC2)n1", "note": "[Example 8, 1-(4-fluorobenzoyl)-4-[1-(2-methyl-4-pyrimidinyl)-4-piperidylmethyl]piperazine]", "melting point": "127 to 128 °C"},
      {"compound": "Cc1nccc(N2CCC(O)(CN3CCN(C(=O)c4ccc(F)cc4)CC3)CC2)n1", "note": "[Example 15, 1-(4-fluorobenzoyl)-4-[1-(2-methylpyrimidin-4-yl]-4-hydroxy-4-piperidylmethyl]piperazine]", "melting point": "114 to 117 °C"},
      {"compound": "O=S(=O)(c1ccc(Br)cc1)N1CCN(CC2CCN(c3ccncc3Cl)CC2)CC1", "note": "[Example 20, 1-(4-bromophenylsulphonyl)-4-[1-(3-chloro-4-pyridyl)piperidin-4-ylmethyl]piperazine]", "melting point": "158 to 159 °C"},
      {"compound": "O=S(=O)(c1ccc(Br)cc1)N1CCC(CN2CCC(c3ccncc3)CC2)CC1", "note": "[Example 3, 1-(4-bromophenylsulphonyl)-4-[4-(4-pyridyl)-1-piperidylmethyl]piperidine]", "melting point": "163 to 164 °C"},
      {"compound": "Cc1nccc(N2CCN(CC3CCN(S(=O)(=O)c4ccc(Cl)cc4)CC3)CC2)n1", "note": "[Example 1, 1-(4-chlorophenylsulphonyl)-4-[1-(2-methylpyrimidin-4-yl)piperazin-4ylmethyl]piperidine]", "melting point": "191 to 193 °C (dec.)"},
      {"compound": "O=S(=O)(c1ccc(Br)cc1)N1CCN(CC2CCN(c3ccncc3)CC2)CC1", "note": "[Example 19, 1-(4-bromophenylsulphonyl)-4-[1-(4-pyridyl)piperidin-4-ylmethyl]piperazine]", "melting point": "179 to 180 °C"}
    ]}
  ]
}
